Assay results as given in patent publication US20230331803A1, “CO-AGONISTS OF THE GLP-1 AND AMYLIN RECEPTORS” (priority 2020, published 2023).
Read-outs that look alike come from different tables or passages of the source. Starred links: 1 amine or outer side, 2 acyl side, 3 side chain; linkers in the order of their positions; H or OH if unused. Non-standard residues stand in square brackets, D forms with d. Groups on a side chain read outwards from the residue. *: point of attachment. Butyryl(4-SO2NHCO(CH2)16Tz) = O=C(CCCCCCCCCCCCCCCCc1nnn[nH]1)NS(=O)(=O)CCCC(=O)*; Decanoyl(10-(4-HOOC-PhO)) = O=C(O)c1ccc(OCCCCCCCCCC(=O)*)cc1; C20 diacid = O=C(O)CCCCCCCCCCCCCCCCCCC(=O)*; C18 diacid = O=C(O)CCCCCCCCCCCCCCCCC(=O)*; C16 diacid = O=C(O)CCCCCCCCCCCCCCC(=O)*; γGlu = O=C(O)[C@H](CCC(=O)[*:2])N[*:1]; C14 diacid = O=C(O)CCCCCCCCCCCCC(=O)*; Desaminohistidyl = O=C(CCc1c[nH]cn1)*; AEEA = NCCOCCOCC(=O)O; Aib = CC(C)(N)C(=O)O; Ahx = NCCCCCC(=O)O

Key:
human GLP-1 receptor = target: T1, human GLP-1 receptor (Homo sapiens, UniProt P43220); assay: Human GLP-1 receptor in vitro potency assay (CRE-luciferase reporter, BHK cells); format: cell-based
T1 construct: expressed in transfected cells; host or cells: BHK (Baby Hamster Kidney) cells, clone BHK 467-12A KZ-10, stably transfected, with CRE-luciferase reporter
Protocol: It is thus possible to measure GLP-1 receptor activity using a CRE-luciferase reporter gene introduced into Baby Hamster Kidney (BHK) cells co-expressing the GLP-1 receptor.
Cells were aliquoted and stored at -180° C. until use.
Plates were sealed and incubated at room temperature with gentle shaking for 30 minutes while protected from light. Luminescence was detected on a luminescence plate reader e.g. a Synergy 2 (BioTek).

[1] = target: T2, human amylin receptor (hAmyR3) (Homo sapiens, UniProt O60896+P30988); assay: Human amylin receptor in vitro potency assay (CRE-luciferase reporter, BHK cells); format: cell-based;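 further: BHK cells expressing human calcitonin receptor plus RAMP3 (amylin-3 receptor) with a CRE-luciferase reporter, agonist activity read as luminescence from cAMP-driven transcription, 7-point serial dilutions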
T2 construct: host or cells: BHK cells (Hollex-1 line: human calcitonin receptor (a) + CRE-Luc), further transfected with human RAMP3

[2] = Table 4a, BHK cells expressing human GLP-1R, CRE-Luc, 3 hours, read-out: Human GLP-1R potency [EC50 (pM)]
[3] = Table 4a, BHK hAmyR3/CRE-Luc cells, 3 hours, read-out: Human AmyR3 potency [EC50 (pM)]

T1 sequence (P43220 24-463): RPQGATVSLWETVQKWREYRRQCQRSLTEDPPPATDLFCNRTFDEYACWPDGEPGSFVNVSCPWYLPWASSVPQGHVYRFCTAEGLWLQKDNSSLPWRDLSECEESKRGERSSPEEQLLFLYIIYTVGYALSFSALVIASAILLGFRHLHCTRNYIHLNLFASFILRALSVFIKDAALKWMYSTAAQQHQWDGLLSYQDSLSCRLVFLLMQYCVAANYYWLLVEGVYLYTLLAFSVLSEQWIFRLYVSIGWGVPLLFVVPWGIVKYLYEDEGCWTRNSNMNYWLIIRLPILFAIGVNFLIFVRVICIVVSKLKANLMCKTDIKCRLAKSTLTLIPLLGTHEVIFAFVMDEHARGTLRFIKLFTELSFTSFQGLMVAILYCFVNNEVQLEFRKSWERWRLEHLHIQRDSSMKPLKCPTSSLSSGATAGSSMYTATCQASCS
T2 sequence (P30988 25-474): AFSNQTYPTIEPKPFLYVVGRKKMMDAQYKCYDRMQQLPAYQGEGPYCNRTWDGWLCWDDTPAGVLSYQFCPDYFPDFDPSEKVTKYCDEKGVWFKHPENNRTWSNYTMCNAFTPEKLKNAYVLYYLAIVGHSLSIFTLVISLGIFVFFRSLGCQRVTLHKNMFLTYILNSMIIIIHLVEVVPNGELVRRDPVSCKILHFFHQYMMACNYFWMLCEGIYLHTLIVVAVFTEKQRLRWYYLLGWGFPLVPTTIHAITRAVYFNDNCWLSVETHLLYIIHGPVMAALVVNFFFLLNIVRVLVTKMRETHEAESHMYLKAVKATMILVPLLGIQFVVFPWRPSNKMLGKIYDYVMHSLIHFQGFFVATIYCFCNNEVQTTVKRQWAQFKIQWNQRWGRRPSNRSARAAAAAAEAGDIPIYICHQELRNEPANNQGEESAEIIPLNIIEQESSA
T2 sequence (O60896 24-148): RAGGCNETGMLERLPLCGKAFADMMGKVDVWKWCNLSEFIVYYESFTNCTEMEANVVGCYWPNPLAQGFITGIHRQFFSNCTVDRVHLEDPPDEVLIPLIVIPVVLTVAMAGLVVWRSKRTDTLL

Molecule | EC50 (human GLP-1 receptor; [2]) | EC50 [1, 3] | other results
H-H[Aib]EGTFTSDVSK([γGlu-γGlu-γGlu-γGlu-C20 diacid])YLEEQAAREFIEWLVRGAAEASELSTAALGRLSAELHELATLPRTETGSGSP-NH2 [Compound 0632] | 18.8 pM | 148 pM | –
H-H[Aib]EGTFTSDVSK([AEEA-AEEA-γGlu-C14 diacid])YLEEQAVREFIAK([AEEA-AEEA-γGlu-C14 diacid])LVRGRGGGEASELSTAALGRLSAELHELATLPRTETGSGSP-NH2 [Compound 0484] | 72.8 pM | 32.5 pM | –
H-H[Aib]EGTFTSDVSSYLEEQAAREFIAWLVRGRK([Ahx-Ahx-γGlu-C20 diacid])GGGGEASELSTAALGRLSAELHELATLPRTETGSGSP-NH2 [Compound 0659] | 4.7 pM | 11.5 pM | –
H-H[Aib]EGTFTSDVSSYLEEQAAREFIAWLVRGRGK(Butyryl(4-SO2NHCO(CH2)16Tz))GGGASELSTAALGRLSAELHELATLPRTETGSGSP-NH2 [Compound 0145] | 11.9 pM | 16.5 pM | –
H-Aib-EGTFTSDVSSYLEGQAA-K([2-[2-[2-[[2-[2-[2-[[(4S)-4-Carboxy-4-(17-Carboxyheptadecanoylamino)Butanoyl]Amino]Ethoxy]Ethoxy]Acetyl]Amino]Ethoxy]Ethoxy]Acetyl])-EFIAWLVRGRGGQEPGQEPCNTATCATQRLAEFLRHSSNNFGPILPPTNVGSNTP-amide [Comparator compound 0015, reference compound] | – | – | EC50 (human GLP-1 receptor; read-out: Human GLP-1 R potency [EC50 (pM)], Table 4c, further comparator compounds): 45 pM; EC50 ([1]; Table 4c, further comparator compounds, read-out: Human AmyR3 potency [EC50 (pM)]): 312 pM; Ability to agonise the amylin receptor, in words ([1]; Tables 4a-4c): poor agonist of the amylin receptor
H-H[Aib]EGTFTSDVSSYLEEQAAREFIAWLVRGK([AEEA-AEEA-γGlu-C18 diacid])GGEASELSTAALGRLSAELHELATLPRTETGSGSP-NH2 [Compound 0132] | 3 pM | 34.9 pM | –
H-H[Aib]EGTFTSDVSSYLEEQAAREFIAWLVRGRK(Butyryl(4-SO2NHCO(CH2)16Tz))ELSTAALGRLSAELHELATLPRTETGSGSP-NH2 [Compound 0102] | 14.7 pM | 9.8 pM | –
H-H[Aib]EGTFTSDVSSYLEEQAAREFIAWLVRGK([AEEA-AEEA-γGlu-C16 diacid])GGGGGEASELSTAALGRLSAELHELATLPRTETGK([AEEA-AEEA-γGlu-C16 diacid])GSP-NH2 [Compound 0285] | 19 pM | 78.9 pM | –
H-H[Aib]EGTFTSDVSK([AEEA-AEEA-γGlu-C16 diacid])YLEEQAVREFIAK([AEEA-AEEA-γGlu-C16 diacid])LVRGRGGGEASELSTAALGRLSAELHELATLPRTETGSGSP-NH2 [Compound 0483] | 33.7 pM | 36.8 pM | –
CC[C@H](C)[C@H](NC(=O)[C@H](Cc1ccccc1)NC(=O)[C@H](CCC(=O)O)NC(=O)[C@H](CCCCNC(=O)COCCOCCNC(=O)COCCOCCNC(=O)CC[C@H](NC(=O)CCCCCCCCCCCCCCCCC(=O)O)C(=O)O)NC(=O)[C@H](C)NC(=O)[C@H](C)NC(=O)[C@H](CCC(N)=O)NC(=O)CNC(=O)[C@H](CCC(=O)O)NC(=O)[C@H](CC(C)C)NC(=O)[C@H](Cc1ccc(O)cc1)NC(=O)[C@H](CO)NC(=O)[C@H](CO)NC(=O)[C@@H](NC(=O)[C@H](CC(=O)O)NC(=O)[C@H](CO)NC(=O)[C@@H](NC(=O)[C@H](Cc1ccccc1)NC(=O)[C@@H](NC(=O)CNC(=O)[C@H](CCC(=O)O)NC(=O)C(C)(C)NC(=O)[C@@H](N)Cc1c[nH]cn1)[C@@H](C)O)[C@@H](C)O)C(C)C)C(=O)N[C@@H](C)C(=O)N[C@@H](Cc1c[nH]c2ccccc12)C(=O)N[C@@H](CC(C)C)C(=O)N[C@H](C(=O)N[C@@H](CCCNC(=N)N)C(=O)NCC(=O)N[C@@H](CCCNC(=N)N)C(=O)NCC(=O)NCC(=O)N[C@@H](CCC(N)=O)C(=O)N[C@@H](CCC(=O)O)C(=O)N[C@@H](CCCCNC(=O)COCCOCCNC(=O)COCCOCCNC(=O)CC[C@H](NC(=O)CCCCCCCCCCCCCCCCC(=O)O)C(=O)O)C(=O)NCC(=O)N[C@@H](CCC(N)=O)C(=O)N[C@@H](CCC(=O)O)C(=O)N1CCC[C@H]1C(=O)N[C@@H](CCC(=O)O)C(=O)N[C@@H](C)C(=O)N[C@@H](CO)C(=O)N[C@@H](CCC(=O)O)C(=O)N[C@@H](CC(C)C)C(=O)N[C@@H](CO)C(=O)N[C@H](C(=O)N[C@@H](C)C(=O)N[C@@H](C)C(=O)N[C@@H](CC(C)C)C(=O)NCC(=O)N[C@@H](CCCNC(=N)N)C(=O)N[C@@H](CC(C)C)C(=O)N[C@@H](CO)C(=O)N[C@@H](C)C(=O)N[C@@H](CCC(=O)O)C(=O)N[C@@H](CC(C)C)C(=O)N[C@@H](Cc1c[nH]cn1)C(=O)N[C@@H](CCC(=O)O)C(=O)N[C@@H](CC(C)C)C(=O)N[C@@H](C)C(=O)N[C@H](C(=O)N[C@@H](CC(C)C)C(=O)N1CCC[C@H]1C(=O)N[C@@H](CCCNC(=N)N)C(=O)N[C@H](C(=O)N[C@@H](CCC(=O)O)C(=O)N[C@H](C(=O)NCC(=O)N[C@@H](CO)C(=O)NCC(=O)N[C@@H](CO)C(=O)N1CCC[C@H]1C(N)=O)[C@@H](C)O)[C@@H](C)O)[C@@H](C)O)[C@@H](C)O)C(C)C [Compound 0057] | – | – | EC50 (human GLP-1 receptor): 59 pM; EC50 [1]: 165 pM
Desaminohistidyl-[Aib]EGTFTSDVSSYLEEQAAREFIAWLVRGRK([γGlu-C20 diacid])EASELSTAALGRLSAELHELATLPRTETGSGSP-NH2 [Compound 0142] | 88.2 pM | 15.4 pM | –
HWEGTFTSDVSSYLEEQAARK([AEEA-AEEA-γGlu-Decanoyl(10-(4-HOOC-PhO))])FIEWLVRGK([AEEA-AEEA-γGlu-Decanoyl(10-(4-HOOC-PhO))])GEGGGGGGGGGEASELSTAALGRLSAELHELATLPRTETGSGSP-NH2 [Compound 0101] | – | – | EC50 (human GLP-1 receptor): 7.1 pM; EC50 [1]: 10.2 pM
H-H[Aib]EGTFTSDVSSYLEEQAAREFIAWLVRK([AEEA-AEEA-γGlu-C16 diacid])RGGGGGASELSTAALGRLSK([AEEA-AEEA-γGlu-C16 diacid])ELHELATLPRTETGSGSP-NH2 [Compound 0297] | 30.2 pM | 46 pM | –

The next lines start with results.

EC50 (human GLP-1 receptor; [2]) | EC50 [1, 3] | Molecule | other results
4 pM | 29.9 pM | H-H[Aib]EGTFTSDVSSYLEEQAARK([AEEA-AEEA-γGlu-C16 diacid])FIAWLVRGRGGGGGASELSTAALGRLSK([AEEA-AEEA-γGlu-C16 diacid])ELHELATLPRTETGSGSP-NH2 [Compound 0296] | –
27.9 pM | 24.4 pM | CC[C@H](C)[C@H](NC(=O)[C@H](Cc1ccccc1)NC(=O)[C@H](CCC(=O)O)NC(=O)[C@H](CCCNC(=N)N)NC(=O)[C@H](C)NC(=O)[C@H](C)NC(=O)[C@H](CCC(N)=O)NC(=O)[C@H](CCC(=O)O)NC(=O)[C@H](CCC(=O)O)NC(=O)[C@H](CC(C)C)NC(=O)[C@H](Cc1ccc(O)cc1)NC(=O)[C@H](CO)NC(=O)[C@H](CO)NC(=O)[C@@H](NC(=O)[C@H](CC(=O)O)NC(=O)[C@H](CO)NC(=O)[C@@H](NC(=O)[C@H](Cc1ccccc1)NC(=O)[C@@H](NC(=O)CNC(=O)[C@H](CCC(=O)O)NC(=O)C(C)(C)NC(=O)CCc1c[nH]cn1)[C@@H](C)O)[C@@H](C)O)C(C)C)C(=O)N[C@@H](C)C(=O)N[C@@H](Cc1c[nH]c2ccccc12)C(=O)N[C@@H](CC(C)C)C(=O)N[C@H](C(=O)N[C@@H](CCCNC(=N)N)C(=O)NCC(=O)N[C@@H](CCCNC(=N)N)C(=O)N[C@@H](CCCCNC(=O)CCCS(=O)(=O)NC(=O)CCCCCCCCCCCCCCCCc1nnn[nH]1)C(=O)N[C@@H](CCC(=O)O)C(=O)N[C@@H](C)C(=O)N[C@@H](CO)C(=O)N[C@@H](CCC(=O)O)C(=O)N[C@@H](CC(C)C)C(=O)N[C@@H](CO)C(=O)N[C@H](C(=O)N[C@@H](C)C(=O)N[C@@H](C)C(=O)N[C@@H](CC(C)C)C(=O)NCC(=O)N[C@@H](CCCNC(=N)N)C(=O)N[C@@H](CC(C)C)C(=O)N[C@@H](CO)C(=O)N[C@@H](C)C(=O)N[C@@H](CCC(=O)O)C(=O)N[C@@H](CC(C)C)C(=O)N[C@@H](Cc1c[nH]cn1)C(=O)N[C@@H](CCC(=O)O)C(=O)N[C@@H](CC(C)C)C(=O)N[C@@H](C)C(=O)N[C@H](C(=O)N[C@@H](CC(C)C)C(=O)N1CCC[C@H]1C(=O)N[C@@H](CCCNC(=N)N)C(=O)N[C@H](C(=O)N[C@@H](CCC(=O)O)C(=O)N[C@H](C(=O)NCC(=O)N[C@@H](CO)C(=O)NCC(=O)N[C@@H](CO)C(=O)N1CCC[C@H]1C(N)=O)[C@@H](C)O)[C@@H](C)O)[C@@H](C)O)[C@@H](C)O)C(C)C [Compound 0124] | –
7.5 pM | 11.3 pM | H-H[Aib]EGTFTSDVSSYLEGQAAK([AEEA-AEEA-γGlu-C20 diacid])EFIAWLVRGRGGGGGGGGGEASELSTAALGRLSAELHELATLPRTETGSGSP-NH2 [Compound 0094] | –
3.2 pM | 19.1 pM | H[Aib]EGTFTSDVSSYLEEQAARK([AEEA-AEEA-γGlu-C18 diacid])FIAWLVRGK([AEEA-AEEA-γGlu-C18 diacid])GGGGGGGGGEASELSTAALGRLSAELHELATLPRTETGSGSP-NH2 [Compound 0109] | –
28.7 pM | 18.4 pM | H-H[Aib]EGTFTSDVSSYLEGQAAK([AEEA-AEEA-γGlu-C20 diacid])EFIAWLVRGRGQAPGQEPEASELSTAALGRLSAELHELATLPRTETGSGSP-NH2 [Compound 0157] | –
5.7 pM | 65.5 pM | H-H[Aib]EGTFTSDVSSYLEEQAARK([AEEA-AEEA-γGlu-C18 diacid])FIEWLVRGK([AEEA-AEEA-γGlu-C18 diacid])GEGGEASELSTAALGRLSAELHELATLPRTETGSGSP-NH2 [Compound 0089] | –
2.1 pM | 25.7 pM | H-H[Aib]EGTFTSDVSSYLEEQAARK([AEEA-AEEA-γGlu-C16 diacid])FIAWLVK([AEEA-AEEA-γGlu-C16 diacid])GRGGGEASELSTAALGRLSAELHELATLPRTETGSGSP-NH2 [Compound 0077] | –
7.5 pM | 8.6 pM | H-H[Aib]EGTFTSDVSSYLEGQAAK([AEEA-AEEA-γGlu-C18 diacid])EFIAWLVRGRGGGGGGGGGGGGGGGGGEASELSTAALGRLSAELHELATLPRTETGSGSP-NH2 [Compound 0093] | –
